As usually defined, the kon is a measure of how fast the partners come together. A high value points to fast association. As usually defined, the IC50 is the concentration at which inhibition is half-maximal. Low values mean greater potency, high ones weaker potency.

In test [1] the target is T1, Growth factor receptor-bound protein 2 (Homo sapiens, UniProt P62993). Nature of the test: First order rate constant (koff) for human growth factor receptor bound protein 2.
Target sequence in this assay (P62993 whole entry, looked up): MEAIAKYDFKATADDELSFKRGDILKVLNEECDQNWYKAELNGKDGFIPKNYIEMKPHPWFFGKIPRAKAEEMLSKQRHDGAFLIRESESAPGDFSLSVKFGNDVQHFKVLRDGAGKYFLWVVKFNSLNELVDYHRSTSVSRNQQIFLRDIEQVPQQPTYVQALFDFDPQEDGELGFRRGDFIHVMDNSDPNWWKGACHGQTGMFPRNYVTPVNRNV
Test [2] addresses T1, Growth factor receptor-bound protein 2. Nature of the test: Apparent dissociation constant for human growth factor receptor bound protein 2.
Target sequence in this assay (P62993 whole entry): as the sequence (P62993 whole entry, looked up) above
Test [3] has the same target. Nature of the test: First order rate constant (kon) for human growth factor receptor bound protein 2.
Target sequence in this assay (P62993 whole entry, looked up): as above
The target is the same in test [4]. Description: Inhibitory concentration for human growth factor receptor bound protein 2.
Target sequence in this assay (P62993 whole entry): as the sequence (P62993 whole entry, looked up) above

For the compound `NC(=O)C[C@H](NC(=O)C1(NC(=O)[C@@H](CC(=O)O)Cc2ccc(CP(=O)(O)O)cc2)CCCCC1)C(=O)NCCNc1ccc([N+](=O)[O-])c2nonc12`, the k off in test [1] was 0.14 s⁻¹. The Kd in test [2] was found to be 119 nM. The kon in test [3] is 1.18e+06 1/M1/S. The IC50 in test [4] amounted to 167 nM.

`NC(=O)C[C@H](NC(=O)C1(NC(=O)[C@@H](CC(=O)O)Cc2ccc(CP(=O)(O)O)cc2)CCCCC1)C(=O)NCCCc1cccc2ccccc12` registered a k off in test [1] of 0.0991 s⁻¹. The Kd in test [2] is 23.8 nM. Moreover, in test [3], the kon was 4.18e+06 1/M1/S.

The record behind these values is ChEMBL document CHEMBL1142005, “Utilization of a nitrobenzoxadiazole (NBD) fluorophore in the design of a Grb2 SH2 domain-binding peptide mimetic” (Bioorg Med Chem Lett, 2005).
